ChEMBL document CHEMBL4433240, “Identification and characterization of potent and selective inhibitors targeting protein tyrosine phosphatase 1B (PTP1B)” (Bioorg Med Chem Lett, 2019)
Calls of active or inactive are those of the source. No cut-off for these calls is given here.

How the values were obtained:
[1] = target: T1, Tyrosine-protein phosphatase non-receptor type 1 (Homo sapiens, UniProt P18031); experiment: Inhibition of PTP1B (unknown origin) assessed as reduction in nitrophenol production using pNPP as substrate incubated for 30 mins by EnVisionMultilable plate reader based method
T1 sequence (P18031 whole entry): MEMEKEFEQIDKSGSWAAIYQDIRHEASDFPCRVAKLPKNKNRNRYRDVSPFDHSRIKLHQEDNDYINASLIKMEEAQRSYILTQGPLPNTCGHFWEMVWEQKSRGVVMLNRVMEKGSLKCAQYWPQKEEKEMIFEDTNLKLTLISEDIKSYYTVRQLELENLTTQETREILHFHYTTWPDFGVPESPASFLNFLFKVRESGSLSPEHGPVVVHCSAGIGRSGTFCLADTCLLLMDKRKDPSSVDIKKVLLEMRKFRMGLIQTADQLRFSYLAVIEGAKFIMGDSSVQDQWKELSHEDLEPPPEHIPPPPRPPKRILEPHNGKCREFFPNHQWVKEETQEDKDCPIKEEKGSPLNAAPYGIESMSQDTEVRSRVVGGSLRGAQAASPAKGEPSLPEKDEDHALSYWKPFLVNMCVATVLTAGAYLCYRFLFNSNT

[2] = target: T2, Tyrosine-protein phosphatase non-receptor type 2 (Homo sapiens, UniProt P17706); experiment: Inhibition of TCPTP (unknown origin) assessed as reduction in nitrophenol production using pNPP as substrate incubated for 30 mins by EnVisionMultilable plate reader based method
T2 sequence (P17706 whole entry): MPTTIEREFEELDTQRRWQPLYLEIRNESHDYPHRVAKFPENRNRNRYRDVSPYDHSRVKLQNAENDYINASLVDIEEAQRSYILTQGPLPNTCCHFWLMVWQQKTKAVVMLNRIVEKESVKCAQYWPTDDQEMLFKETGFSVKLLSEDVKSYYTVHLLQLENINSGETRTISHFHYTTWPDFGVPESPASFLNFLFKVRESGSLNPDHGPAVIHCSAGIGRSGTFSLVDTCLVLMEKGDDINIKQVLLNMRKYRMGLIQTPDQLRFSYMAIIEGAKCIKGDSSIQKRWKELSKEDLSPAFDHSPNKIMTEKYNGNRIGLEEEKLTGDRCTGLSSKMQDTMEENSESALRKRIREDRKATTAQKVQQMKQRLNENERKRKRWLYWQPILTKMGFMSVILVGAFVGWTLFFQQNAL

Homo sapiens [3] = species on record: Homo sapiens; experiment: Selectivity ratio of IC50 for TCPTP (unknown origin) using pNPP as substrate to IC50 for PTP1B (unknown origin) using pNPP as substrate
[4] = target: T1, Tyrosine-protein phosphatase non-receptor type 1; experiment: Inhibition of human FLAG-tagged PTP1B catalytic domain (1 to 298) expressed in Escherichia coli using fluorescein diphosphate as substrate by fluorescence based method
[5] = target: T2, Tyrosine-protein phosphatase non-receptor type 2; experiment: Inhibition of human FLAG-tagged TCPTP (1 to 296) expressed in Escherichia coli using fluorescein diphosphate as substrate by fluorescence based method
Homo sapiens [6] = species on record: Homo sapiens; experiment: Selectivity ratio of IC50 for TCPTP (unknown origin) to IC50 for human GST-tagged PTP1B
[7] = target: T3, Tyrosine-protein phosphatase non-receptor type 1 (Homo sapiens) (UniProt P18031); experiment: Competitive inhibition of PTP1B (unknown origin) assessed as increase in Km at 0 to 9.6 uM using varying levels of pNPP as substrate by Lineweaver-Burk plot analysis
T3 sequence (whole entry): T1 sequence (P18031 whole entry)

[8] = target: T3, Tyrosine-protein phosphatase non-receptor type 1 (Homo sapiens); experiment: Competitive inhibition of PTP1B (unknown origin) assessed as change in V max at 0 to 9.6 uM using varying levels of pNPP as substrate by Lineweaver-Burk plot analysis
[9] = Cytotoxicity against human L02 cells assessed as cell viability at 1 to 250 uM after 72 hrs by WST1 assay; format: cell-based; settings: read-out: Activity
L02 = experiment: Cytotoxicity against human L02 cells assessed as reduction in cell viability after 72 hrs by WST1 assay; format: cell-based; settings: L02, 72 h
[10] = target: T3, Tyrosine-protein phosphatase non-receptor type 1 (Homo sapiens); experiment: Competitive inhibition of PTP1B (unknown origin) assessed as increase in Km at 0 to 28.8 uM using varying levels of pNPP as substrate by Lineweaver-Burk plot analysis
[11] = target: T3, Tyrosine-protein phosphatase non-receptor type 1 (Homo sapiens); experiment: Competitive inhibition of PTP1B (unknown origin) assessed as change in V max at 0 to 28.8 uM using varying levels of pNPP as substrate by Lineweaver-Burk plot analysis

| Structure (SMILES) | IC50 [1] [µM] | IC50 [2] [µM] | Ratio IC50 (Homo sapiens [3]) | other results |
| --- | --- | --- | --- | --- |
| COC(=O)C1=C(C(C)(C)C)NC(=S)N[C@H]1/C=C/c1ccc(Cl)cc1 | 6.65 | 54.8 | 8.24 | – |
| COC(=O)C1=C(C(C)(C)C)NC(=S)N[C@H]1/C=C/c1ccccc1 | > 50 | – | – | – |
| COC(=O)C1=C(C(C)(C)C)NC(=S)N[C@H]1/C=C/c1ccc(OC)cc1 | 5.03 | > 100 | > 19.9 | – |
| COC(=O)C1=C(C(C)C)NC(=S)N[C@H]1/C=C/c1ccc([N+](=O)[O-])cc1 | > 50 | – | – | – |
| COC(=O)C1=C(C(C)(C)C)NC(=S)N[C@H]1/C=C/c1ccc([N+](=O)[O-])cc1 | 11.4 | > 100 | > 8.79 | – |
| COC(CC(C)C)c1ccc2ccc(-c3ccc(CC(Cc4ccc(C(F)(F)P(=O)(O)O)cc4)(c4ccccc4)n4nnc5ccccc54)cc3)c(P(=O)(O)O)c2n1 (configuration not stated) | – | – | – | IC50 [4]: 0.005 µM; IC50 [5]: 0.036 µM |
| CCOC(=O)C1=C(C(C)C)NC(=S)N[C@H]1/C=C/c1ccc(C(F)(F)F)cc1 | 10.3 | > 100 | > 9.66 | – |
| CCOC(=O)C1=C(C(C)C)NC(=S)N[C@H]1/C=C/c1ccc(C)cc1 | 7.49 | > 100 | > 13.3 | – |
| CCOC(=O)C1=C(C(C)C)NC(=S)N[C@H]1/C=C/c1ccc(F)cc1 | > 50 | – | – | – |
| CC(C)OCc1cc(O)c(O)c(Br)c1Cc1cc(O)c(O)c(Br)c1Br | – | – | – | Ratio IC50 (Homo sapiens [6]): > 50 |
| COC(=O)C1=C(C(C)C)NC(=S)N[C@H]1/C=C/c1ccc(Cl)cc1 | 7.12 | > 100 | > 14 | inhibition [7]: Active; inhibition [8]: Active; viability at 72 h, up to 250 µM [9]: > 85%; IC50 (L02): > 250 µM |
| CCOC(=O)C1=C(C(C)C)NC(=S)N[C@H]1/C=C/c1ccccc1 | > 50 | – | – | – |
| CCOC(=O)C1=C(C(C)C)NC(=S)N[C@H]1/C=C/c1ccc(Br)cc1 | 11.3 | > 100 | > 8.85 | – |
| CCOC(=O)C1=C(C(C)C)NC(=S)N[C@H]1/C=C/c1ccc([N+](=O)[O-])cc1 | > 50 | > 100 | – | – |
| CC1(C)CC[C@]2(C(=O)O)CC[C@]3(C)C(=CC[C@@H]4[C@@]5(C)CC[C@H](O)C(C)(C)[C@@H]5CC[C@]43C)[C@@H]2C1 [OLEANOLIC_ACID] | – | – | – | viability at 72 h, up to 250 µM [9]: < 85% |
| CCOC(=O)C1=C(C(C)C)NC(=S)N[C@H]1/C=C/c1ccc(OC)cc1 | 2.38 | 40.4 | 17 | – |
| COC(=O)C1=C(C(C)C)NC(=S)N[C@H]1/C=C/c1ccc(Br)cc1 | 6.28 | > 100 | > 15.9 | – |
| COC(=O)C1=C(C(C)C)NC(=S)N[C@H]1/C=C/c1ccccc1 | 18.6 | > 100 | > 5.39 | – |
| COC(=O)C1=C(C(C)(C)C)NC(=S)N[C@H]1/C=C/c1ccc(C)cc1 | 16.3 | > 100 | > 6.13 | – |
| COC(=O)C1=C(C(C)(C)C)NC(=S)N[C@H]1/C=C/c1ccc(F)cc1 | > 50 | – | – | – |
| COC(=O)C1=C(C(C)(C)C)NC(=S)N[C@H]1/C=C/c1ccc(Br)cc1 | 11 | 36 | 3.28 | – |
| COC(=O)C1=C(C(C)C)NC(=S)N[C@H]1/C=C/c1ccc(F)cc1 | 3.33 | > 100 | > 30 | inhibition [10]: Active; inhibition [11]: Active; viability at 72 h, up to 250 µM [9]: > 85%; IC50 (L02): > 250 µM |
| COC(=O)C1=C(C(C)C)NC(=S)N[C@H]1/C=C/c1ccc(C(F)(F)F)cc1 | 5.49 | > 100 | > 18.2 | – |
| COC(=O)C1=C(C(C)(C)C)NC(=S)N[C@H]1/C=C/c1ccc(C(F)(F)F)cc1 | 6.31 | > 100 | > 15.8 | – |
| CCOC(=O)C1=C(C(C)C)NC(=S)N[C@H]1/C=C/c1ccc(Cl)cc1 | 4.79 | 35.8 | 7.47 | – |
